Experiment [1] has as its system TNF-α. Nature of the experiment: LPS-induced TNF-α production in human whole blood cell cultures (WEHI 164.13 bioassay). The class given is cell-based. The conditions noted are these: for % of Inhibition vs. DMSO Control / TNF-α: LPS 1 µg/mL; for % of Inhibition vs. DMSO Control: TNF-α production; for TNF-α: whole blood diluted 10×, overnight, single cultures; for Suppressive Effect on TNF-α Production: summary of structure-activity relationship, LPS-induced, whole blood. On the procedure: Human whole blood was diluted 10× with RPMI-1640 medium and distributed to 24-well culture plates in 1 mL aliquots. LPS was added to the culture at a concentration of 1 µg/mL. The studied peptides were used at concentrations of 1, 10, and 100 µg/mL. After overnight incubation, the supernatants were harvested and frozen at −20 °C until cytokine determination. TNF-α activity was determined using a bioassay with the highly sensitive cell line WEHI 164.13 [29]. Briefly, cells were seeded at a concentration of 2 × 10^4 cells/well in quadruplicate. Increasing dilutions of the assayed supernatant were mixed with the target cells in the presence of actinomycin D (1 µg/mL). After 20 h of incubation, MTT was added into the wells, and the cultures were incubated for an additional 4 h. Next, a lysing buffer (20% SDS with 50% DMF, pH 4.7) was added and the OD at 550/630 nm in a spectrophotometer was measured after 24 h. The detection limit of the assay was about 2.5 pg/mL. One unit of TNF-α activity was defined as an inverse of supernatant dilution where 50% cell death took place. No statistics were applied here since the data were derived from single cultures (wells).

The test system of experiment [2] is carrageenan-induced inflammation of the air pouch, mouse model. Nature of the experiment: Carrageenan-induced inflammation of air pouches. The conditions noted are these: 100 µg/mouse into air pouch; for Eosinophils in peripheral blood: control mice 9.6%; for Neutrophils in peripheral blood: control mice 37%; for Degranulated mastocytes in air pouches: control untreated air pouches 89.7%. The class given is in vivo. An excerpt:
(§1) C57Bl/6 female mice, 8–10 weeks old and weighing 19–22 g, were delivered by the Breeding Centre of Laboratory Animals at the Institute of Occupational Medicine, Łódź, Poland and used for this study. Mice had free access to granulated food and filtered water. The local ethics committee at the Institute of Immunology and Experimental Therapy, Wrocław, Poland, approved this study (permission #37/2012).
(§2) Blood smears were made on microscopic glasses, and the preparations were dried and stained with Giemsa and May–Grünwald dyes. The blood picture was evaluated in a light microscope at 1000× magnification in immersion oil. Up to 100 cells were counted per preparation. The results were shown as a percentage of mean values of respective cell types: mature neutrophils, band forms of neutrophils, eosinophils, lymphocytes, and monocytes.
Air pouches were formed by a subdermal injection into the dorsal area (under halothane anesthesia) of 5 mL of air (23 G × 11/4 needle, 5 mL syringe). On the next day, the air pouches were supplemented by 1 mL of air and injected with 0.5 mL of 1% carrageenan solution in PBS. The peptides were dissolved in DMSO (1 mg/100 µL DMSO) and supplemented with 0.9% NaCl solution to a volume of 0.2 mL. P03 and 4B8M peptides were injected into air pouches at a dose of 100 µg/mouse 30 min after carrageenan administration. BG mice received the respective amount of DMSO in 0.9% NaCl. Control mice were given only carrageenan solution plus the respective amount of DMSO. The next day, the mice were bled to perform blood smears and sacrificed. A total of 1 mL of 0.9% NaCl was injected into air pouches and the content aspirated. From this source, a total number was determined, the rest were centrifuged, and from a cell pellet, the smears were performed on microscopic glasses and stained with Giemsa and May Grunwald reagents. The cell composition of air pouch exudates was analyzed and the results were shown as a percentage (mean values of the respective cell types: neutrophils, band forms of neutrophils, eosinophils, basophils, lymphocytes, macrophages, and mastocytes).
Five to nine mice per group were used in the experiments. Results (where applicable) are presented as mean values ± standard error (SE). The Brown–Forsyth test was used to determine the homogeneity of variance between groups. When the variance was homogenous, analysis of variance (one-way ANOVA) was applied, followed by post hoc comparisons with Tukey’s test to estimate the significance of the differences between groups. Nonparametric data were evaluated with the Kruskal–Wallis analysis of variance (ANOVA of K–W), as indicated in the text. Significance was determined at p < 0.05. Statistical analysis was performed using […] 7.0 for Windows.

Experiment [3] deals with mouse splenocytes. As to the kind of experiment: ConA-induced proliferation of mouse splenocytes (unpublished data). The class given is cell-based. As to conditions: other data (unpublished).
In experiment [4] the test system is human PBMCs. Nature of the experiment: Proliferative response of PBMC to PHA (MTT). The class given is cell-based. As to conditions: summary of structure-activity relationship; PHA-induced PBMC proliferation, 1-100 µg/mL.
Experimental: PBMCs were isolated by centrifugation on a Ficoll-uropoline gradient (density 1.077 g/mL) (Lymphoprep, PAA Laboratories, Linz, Austria), at 800× g for 20 min at 4 °C. The interphase cells were then washed three times with Hanks’ medium and re-suspended in the culture medium (RPMI-1640 with 10% addition of FCS, L-glutamine, sodium pyruvate, 2-mercaptoetanol, and the antibiotics streptomycin and penicillin) at a density of 2 × 10^6 cells/mL.
The isolated PBMCs were distributed into 96-well flat-bottom plates in 100 µL aliquots (2 × 10^5 cells/well). PHA was used at a concentration of 5 µg/mL. The compounds were tested at concentrations of 1, 10, and 100 µg/mL. DMSO at appropriate dilutions served as a control solvent. After a 4-day incubation in a cell culture incubator, the proliferative response of the cells was determined by the colorimetric MTT method [28] in a Dynatech 5000 spectrophotometer. Data (OPSYS MR Dynex Technologies, Chantilly, VA, USA) are presented as a mean optical density (OD) at 550 nm, with a reference wavelength of 630 nm, from quadruplicate wells ± standard error (SE). The control cultures contained no PHA or PHA without the studied compounds.
The assay was performed by the MTT colorimetric method [29]. […] After additional overnight incubation, the OD was measured at 550/630 nm (Dynatech 5000 spectrophotometer).
Experiment [5] deals with contact sensitivity to oxazolone mouse model. As to the kind of experiment: Contact sensitivity to oxazolone. The class given is in vivo. As to conditions: 0.1% ointment on auricles.
Source text: as §1, §2
The test was performed as described by others, with some modifications. Mice were shaved on the abdomen and after 24 h, 100 µL of 0.5% oxazolone in acetone was applied topically. […] The ear edema was measured after 24 h using a spring caliper. […]
Five to nine mice per group were used in the experiments. […] Nonparametric data were evaluated with the Kruskal–Wallis analysis of variance (ANOVA of K–W), as indicated in the text. Significance was determined at p < 0.05. […]

For experiment [6] the following is noted: 100 μg/mL; unpublished.
Experiment [7] has as its system murine leukemia L1210. The conditions noted are these: 100 μg/mL; unpublished.

Non-standard residues stand in square brackets, D forms with d. Residues, ends and D or L forms follow the SMILES beside them. β3hF = N[C@H](CC(=O)O)Cc1ccccc1

Results on 8 molecules are retold here after article PMC11359963 (Pharmaceutics, 2024).

On to “cyclo[Pro-Pro-β^3-HoPhe-Phe-] (head to tail) [P00, cyclo-[Pro-Pro-β^3-HoPhe-Phe-], reference compound]”, for which, in experiment [1] (peptide 1 µg/mL), the “% of Inhibition vs. DMSO Control” value was 9.8% and the TNF-α turned out to be 7364 pg/mL. In experiment [1] (peptide 10 µg/mL), the “% of Inhibition vs. DMSO Control” value was 10.4% and the TNF-α is 7176 pg/mL. In experiment [2], the “Eosinophils in peripheral blood” value was 3.4%, the “Neutrophils in peripheral blood” value was 31.5% and the “Degranulated mastocytes in air pouches” value is 39.5%. The “Inhibition of concanavalin A (ConA)-induced proliferation of mouse splenocytes” value in experiment [3] is recorded as “moderate inhibition”.

As for “cyclo-[D-Pro-D-Pro-β^3-HoPhe-Phe-] (head to tail) [P07]”, the “% of Inhibition vs. DMSO Control” value in experiment [1] (peptide 1 µg/mL) is recorded as 21.0%; in experiment [1] (peptide 10 µg/mL), 9.0%. Moreover, the TNF-α came out at 6453 pg/mL in experiment [1] (peptide 1 µg/mL) and 7284 pg/mL in experiment [1] (peptide 10 µg/mL). In experiment [1], the “Suppressive Effect on TNF-α Production” value is reported as “small”.

“cyclo- [P02, cyclo-[D-Pro-D-Pro-β^3-HoPhe-D-Phe-]]”: in experiment [1] (peptide 1 µg/mL), the “% of Inhibition vs. DMSO Control” value is 19.0% and the TNF-α was found to be 6614 pg/mL. For the same molecule, in experiment [1] (peptide 10 µg/mL), the “% of Inhibition vs. DMSO Control” value was 20.7% and the TNF-α was determined as 6346 pg/mL. Also, the “Suppressive Effect on TNF-α Production” value in experiment [1] is on record as “small”.

For “cyclo[Pro-Pro-β^3-HoPhe-D-Phe-] (head to tail) [P01]”, the figures for the “% of Inhibition vs. DMSO Control” value in experiment [1] (peptide 1 µg/mL) and in experiment [1] (peptide 10 µg/mL) were 14.1% and 28.1%, respectively. Besides, the TNF-α in experiment [1] (peptide 1 µg/mL) came to 7016 pg/mL; in experiment [1] (peptide 10 µg/mL) it was 5757 pg/mL.

For “cyclo-[Pro-D-Pro-β^3-HoPhe-Phe-] (head to tail) [P05]”, the “% of Inhibition vs. DMSO Control” value came to 12.8% in experiment [1] (peptide 1 µg/mL) and 10.0% in experiment [1] (peptide 10 µg/mL). Also, the TNF-α is listed as 7123 pg/mL in experiment [1] (peptide 1 µg/mL) and 7203 pg/mL in experiment [1] (peptide 10 µg/mL).

With “cyclo-[Pro-Pro-D-β^3-HoPhe-Phe-] (head to tail) [P04]”, in experiment [1] (peptide 1 µg/mL), the “% of Inhibition vs. DMSO Control” value is on record as 33.1% and the TNF-α is on record as 5463 pg/mL. Moreover, in experiment [1] (peptide 10 µg/mL), the “% of Inhibition vs. DMSO Control” value is reported as 33.8% and the TNF-α is listed as 5302 pg/mL. Moreover, the “Suppressive Effect on TNF-α Production” value in experiment [1] is “strong”.

For “cyclo-[D-Pro-D-Pro-D-β^3-HoPhe-D-Phe-] [P06]”, in experiment [1] (peptide 1 µg/mL), the “% of Inhibition vs. DMSO Control” value amounted to 1.6% and the TNF-α turned out to be 8033 pg/mL. In experiment [1] (peptide 10 µg/mL), the “% of Inhibition vs. DMSO Control” value was 4.4% and the TNF-α amounted to 7658 pg/mL. The “Suppressive Effect on TNF-α Production” value in experiment [1] is given as “absent”.

Turning to `O=C1C[C@H](Cc2ccccc2)NC(=O)[C@@H]2CCCN2C(=O)[C@H]2CCCN2C(=O)[C@H](Cc2ccccc2)N1` [P03, cyclo-[D-Pro-Pro-β^3-HoPhe-Phe-]] (cyclo([dP]P[β3hF]F)), the “Suppressive Effect on Cell Proliferation” value in experiment [4] is reported as “significant at 100 µg/mL”. In experiment [1] (peptide 1 µg/mL), the “% of Inhibition vs. DMSO Control” value was 25.9% and the TNF-α amounted to 6052 pg/mL. Besides, in experiment [1] (peptide 10 µg/mL), the “% of Inhibition vs. DMSO Control” value is given as 34.8% and the TNF-α stood at 5222 pg/mL. For the same molecule, the “Suppressive Effect on TNF-α Production” value in experiment [1] is on record as “strong”. Moreover, the “Percentage of all myeloid cell types in circulating blood” value in experiment [5] is “significantly reduced”. For the same molecule, in experiment [2], the “Eosinophils in peripheral blood” value is reported as 2.0%, the “Neutrophils in peripheral blood” value is recorded as 23% and the “Degranulated mastocytes in air pouches” value is given as 28.7%. Besides, in experiment [6], the “Inhibition of growth of A431 cells” value was 15%. In experiment [7], the “Inhibition of growth of L1210 cells” value is 34%.
